Assay results as given in patent publication US20210322582A1, “RADIOACTIVE IMIDAZOTHIADIAZOLE DERIVATIVE COMPOUND” (Nihon Medi-Physics Co., Ltd., priority 2018, published 2021).
Values belong to the compound of their own block, whether it stands above or below them.

Tests used:
Format in all cases: in vivo
[1] = test system: HT-29 tumor and MDA-MB-231 tumor; assay: CA-IX selectivity of [^111In]ITDA1 in cancer-bearing mouse (HT-29 vs MDA-MB-231); settings: 24 hours from administration
Protocol: HT-29 cells (5×10^6 cells/mouse) and MDA-MB-231 cells (5×10^6 cells/mouse) were subcutaneously inoculated into the left shoulders of 5-week old male BALB/c nude mice, respectively. A saline solution (100 μL) in which [^111In]ITDA1 (37 kBq) had been dissolved was administered to each of the cancer-bearing mice (n=5) via the tail vein. The mice were slaughtered after the lapse of 24 hours from the administration, and the blood, transplanted tumor, and muscle were recovered from each of the mice. The weight of each organ was measured, and the amount of radioactivity in each organ was measured by using a gamma counter. The accumulation of radioactivity in each organ was expressed by % ID (injected dose)/g obtained by dividing the ratio of the amount of radioactivity of each organ to the administered amount of radioactivity by the organ weight.

HT-29 tumor = assay: SPECT/CT imaging using [^111In]ITDA1; settings: HT-29 cancer-bearing mouse, 24 hours from administration
Protocol: (§1) HT-29 cells (5×10^6 cells/mouse) and MDA-MB-231 cells (5×10^6 cells/mouse) were subcutaneously inoculated into the left shoulders of 5-week old male BALB/c nude mice, respectively. A saline solution (150 μL) in which [^111In]ITDA1 (23.8 to 26.2 MBq) had been dissolved was administered to each of the cancer-bearing mice via the tail vein. Each of the mice was subjected to SPECT/CT imaging after the lapse of 1, 4, 8, and 24 hours from the administration. U-SPECT-II/CT (single-pinhole collimator 0.6 or 1.0 mm, resolution: 0.45 mm) manufactured by Milab was used as the SPECT/CT device, and data were collected for 60 minutes in 1, 4, 8, and 24 hours from the administration.
(§2) The collected data were reconstructed by a three-dimensional ordered-subset expectation maximization (3D-OSEM) method. The results of HT-29 cancer-bearing mouse are shown in FIG. 6A, and the results of MDA-MB-231 cancer-bearing mouse are shown in FIG. 6B.

MDA-MB-231 tumor = assay: SPECT/CT imaging using [^111In]ITDA1; settings: MDA-MB-231 cancer-bearing mouse, 24 hours from administration
Protocol: as §1, §2

HT-29-transplanted tumor = assay: Biodistribution of [^111In]ITDA3 in HT-29 cancer-bearing mouse; settings: for Accumulation of radioactivity: Blood / Accumulation of radioactivity: Brain / Accumulation of radioactivity: HT-29 tumor / Accumulation of radioactivity: Heart / Accumulation of radioactivity: Intestines / Accumulation of radioactivity: Kidney / Accumulation of radioactivity: Liver / Accumulation of radioactivity: Lungs / Accumulation of radioactivity: Muscle / Accumulation of radioactivity: Pancreas / Accumulation of radioactivity: Spleen / Accumulation of radioactivity: Stomach / Tumor/blood / Tumor/muscle: HT-29 mouse
Protocol: (§3) HT-29 cells and MDA-MB-231 cells (5×10^6 cells/mouse) were subcutaneously inoculated into the left shoulders of 5-week old male BALB/c nude mice, respectively. A saline solution (100 μL) in which[^111In]ITDA3 (40 kBq) had been dissolved was administered to each of the cancer-bearing mice (n=5) via the tail vein. The HT-29 cancer-bearing mice were slaughtered after the lapse of 1, 4, and 24 hours from the administration, the MDA-MB-231 cancer-bearing mouse was slaughtered after the lapse of 24 hours from the administration, and the blood, spleen, pancreas, stomach, intestines, kidney, liver, heart, lungs, brain, HT-29 or MDA-MB-231-transplanted tumor, and muscle were recovered from each of the mice. The weight of each organ was measured, and the amount of radioactivity in each organ was measured by using a gamma counter. The accumulation of radioactivity in each organ except for stomach was expressed by % ID (injected dose)/g obtained by dividing the ratio of the amount of radioactivity of each organ to the administered amount of radioactivity by the organ weight. The stomach was expressed by % ID (injected dose).

[2] = test system: MDA-MB-231-transplanted tumor; assay: Biodistribution of [^111In]ITDA3 in MDA-MB-231 cancer-bearing mouse; settings: MDA-MB-231 mouse, 24 hours after administration
Protocol: as §3

CA-IX selective tumor accumulation [1]: confirmed
Amount accumulated in the HT-29 tumor vs the MDA-MB-231 tumor ([1]; Welch's t-test, 1% significance level): significant difference was observed
Accumulation of radioactivity in the transplanted tumor (SPECT/CT) (HT-29 tumor): highly observed
Accumulation in the transplanted tumor (SPECT/CT) (MDA-MB-231 tumor): not observed
Structure (SMILES): NS(=O)(=O)c1nn2cc(-c3ccc(NC(=O)CN4CCN(CC(=O)O)CCN(CC(=O)O)CCN(CC(=O)O)CC4)cc3)nc2s1.[111In+3] [[^111In]ITDA1, [^111In]indium(III)2,2′,2″-(10-(2-oxo-2-((4-(2-sulfamoylimidazo[2,1-b][1,3,4]thiadiazol-6-yl)phenyl)amino)ethyl)-1,4,7,10-tetraazacyclododecan-1,4,7-triyl) triacetic acid]
Transplanted tumor/blood ratio, HT-29 vs MDA-MB-231 [1]: significant difference was similarly observed
Transplanted tumor/muscle ratio, HT-29 vs MDA-MB-231 [1]: significant difference was similarly observed

Accumulation of radioactivity: Blood (HT-29-transplanted tumor; 1 hour after administration): 0.09 ± 0.01 % ID/g
Accumulation of radioactivity: Brain (HT-29-transplanted tumor; 1 hour after administration): 0.27 ± 0.05 % ID/g
Accumulation of radioactivity: HT-29 tumor (HT-29-transplanted tumor; 1 hour after administration): 1.60 ± 0.16 % ID/g
Accumulation of radioactivity: Heart (HT-29-transplanted tumor; 1 hour after administration): 6.91 ± 0.32 % ID/g
Accumulation of radioactivity: Intestines (HT-29-transplanted tumor; 1 hour after administration): 8.33 ± 0.44 % ID/g
Accumulation of radioactivity: Kidney (HT-29-transplanted tumor; 1 hour after administration): 95.81 ± 9.44 % ID/g
Accumulation of radioactivity: Liver (HT-29-transplanted tumor; 1 hour after administration): 8.42 ± 1.42 % ID/g
Accumulation of radioactivity: Lungs (HT-29-transplanted tumor; 1 hour after administration): 3.58 ± 0.86 % ID/g
Accumulation of radioactivity: Muscle (HT-29-transplanted tumor; 1 hour after administration): 2.47 ± 0.45 % ID/g
Accumulation of radioactivity: Pancreas (HT-29-transplanted tumor; 1 hour after administration): 14.89 ± 3.20 % ID/g
Accumulation of radioactivity: Spleen (HT-29-transplanted tumor; 1 hour after administration): 0.13 ± 0.20 % ID/g
Accumulation of radioactivity: Stomach (HT-29-transplanted tumor; 1 hour after administration): 1.80 ± 0.27 % ID
Tumor/blood (HT-29-transplanted tumor; 1 hour after administration): 18.89 ± 2.68
Tumor/muscle (HT-29-transplanted tumor; 1 hour after administration): 0.66 ± 0.09
Accumulation of radioactivity: Blood (HT-29-transplanted tumor; 4 hours after administration): 0.06 ± 0.01 % ID/g
Accumulation of radioactivity: Brain (HT-29-transplanted tumor; 4 hours after administration): 0.26 ± 0.04 % ID/g
Accumulation of radioactivity: HT-29 tumor (HT-29-transplanted tumor; 4 hours after administration): 1.71 ± 0.28 % ID/g
Accumulation of radioactivity: Heart (HT-29-transplanted tumor; 4 hours after administration): 2.87 ± 0.36 % ID/g
Accumulation of radioactivity: Intestines (HT-29-transplanted tumor; 4 hours after administration): 7.2 ± 1.53 % ID/g
Accumulation of radioactivity: Kidney (HT-29-transplanted tumor; 4 hours after administration): 80.09 ± 5.11 % ID/g
Accumulation of radioactivity: Liver (HT-29-transplanted tumor; 4 hours after administration): 6.51 ± 1.50 % ID/g
Accumulation of radioactivity: Lungs (HT-29-transplanted tumor; 4 hours after administration): 2.24 ± 0.44 % ID/g
Accumulation of radioactivity: Muscle (HT-29-transplanted tumor; 4 hours after administration): 1.88 ± 0.13 % ID/g
Accumulation of radioactivity: Pancreas (HT-29-transplanted tumor; 4 hours after administration): 6.2 ± 0.78 % ID/g
Accumulation of radioactivity: Spleen (HT-29-transplanted tumor; 4 hours after administration): 0.04 ± 0.03 % ID/g
Accumulation of radioactivity: Stomach (HT-29-transplanted tumor; 4 hours after administration): 0.83 ± 0.11 % ID
Tumor/blood (HT-29-transplanted tumor; 4 hours after administration): 28.6 ± 3.24
Tumor/muscle (HT-29-transplanted tumor; 4 hours after administration): 0.92 ± 0.15
Accumulation of radioactivity: Blood (HT-29-transplanted tumor; 24 hours after administration): 0.06 ± 0.01 % ID/g
Accumulation of radioactivity: Brain (HT-29-transplanted tumor; 24 hours after administration): 0.33 ± 0.07 % ID/g
Accumulation of radioactivity: HT-29 tumor (HT-29-transplanted tumor; 24 hours after administration): 3.02 ± 0.37 % ID/g
Accumulation of radioactivity: Heart (HT-29-transplanted tumor; 24 hours after administration): 2.00 ± 0.38 % ID/g
Accumulation of radioactivity: Intestines (HT-29-transplanted tumor; 24 hours after administration): 11.11 ± 0.85 % ID/g
Accumulation of radioactivity: Kidney (HT-29-transplanted tumor; 24 hours after administration): 70.19 ± 9.28 % ID/g
Accumulation of radioactivity: Liver (HT-29-transplanted tumor; 24 hours after administration): 4.92 ± 1.01 % ID/g
Accumulation of radioactivity: Lungs (HT-29-transplanted tumor; 24 hours after administration): 1.20 ± 0.15 % ID/g
Accumulation of radioactivity: Muscle (HT-29-transplanted tumor; 24 hours after administration): 1.63 ± 0.79 % ID/g
Accumulation of radioactivity: Pancreas (HT-29-transplanted tumor; 24 hours after administration): 3.85 ± 0.68 % ID/g
Accumulation of radioactivity: Spleen (HT-29-transplanted tumor; 24 hours after administration): 0.08 ± 0.05 % ID/g
Accumulation of radioactivity: Stomach (HT-29-transplanted tumor; 24 hours after administration): 0.48 ± 0.04 % ID
Tumor/blood (HT-29-transplanted tumor; 24 hours after administration): 52.06 ± 6.11
Tumor/muscle (HT-29-transplanted tumor; 24 hours after administration): 2.08 ± 0.67
Amount of tumor accumulation compared with [^111In]ITDA1 (HT-29-transplanted tumor; from Table 5): lower than that of [^111In]ITDA1
Amounts of accumulation in normal tissues (in particular, pancreas, stomach, intestines, and lungs) (HT-29-transplanted tumor; from Table 5): small
Accumulation of radioactivity: Blood [2]: 0.06 ± 0.02 % ID/g
Accumulation of radioactivity: Brain [2]: 0.24 ± 0.04 % ID/g
Accumulation of radioactivity: Heart [2]: 1.24 ± 0.19 % ID/g
Accumulation of radioactivity: Intestines [2]: 6.66 ± 0.86 % ID/g
Accumulation of radioactivity: Kidney [2]: 49.65 ± 5.04 % ID/g
Accumulation of radioactivity: Liver [2]: 2.96 ± 0.64 % ID/g
Accumulation of radioactivity: Lungs [2]: 0.93 ± 0.18 % ID/g
Accumulation of radioactivity: MDA-MB-231 tumor [2]: 0.72 ± 0.27 % ID/g
Accumulation of radioactivity: Muscle [2]: 0.99 ± 0.26 % ID/g
Accumulation of radioactivity: Pancreas [2]: 2.00 ± 0.54 % ID/g
Accumulation of radioactivity: Spleen [2]: 0.12 ± 0.02 % ID/g
Accumulation of radioactivity: Stomach [2]: 5.49 ± 0.55 % ID
Tumor/blood [2]: 11.97 ± 6.08
Tumor/muscle [2]: 0.77 ± 0.32
Structure (SMILES): NS(=O)(=O)c1nn2cc(-c3ccc(NC(=O)CCC(C(=O)O)N4CCN(CC(=O)[O-])CCN(CC(=O)[O-])CCN(CC(=O)[O-])CC4)cc3)nc2s1.[111In+3] (stereo not shown) [[^111In]ITDA3]
